In one series the test system is N2A Neuroglioma. As to the kind of experiment: Median lethal dosage (IC50) against tumor cell lines. The series is classed as cell-based. As to conditions: N2A neuroglioma tumor cells.
Series [1] deals with tumor tissue blocks (PDX) from patients with colorectal cancer. In words: Subcutaneous patient colorectal cancer graft (PDX) in nude mice. The class given is in vivo.
A further series concerns LO2. In words: Median lethal dosage (IC50) against normal cell lines. The series is classed as cell-based. As to conditions: Homo sapiens, L02; LO2 normal cells.
Series [2] can be described thus: Tolerability of gavage oral administration in mice. The class given is in vivo. As to conditions: gavage oral 20 mg/Kg per day.
Series [3] deals with mTOR, p-NFkB, p-Erk, cleaved Caspase3. As to the kind of experiment: Signaling molecules in cells by Western blotting. The series is classed as cell-based. Here is the method: We investigated the mechanism of ethidium bromide-induced apoptosis in tumor cells. First, tumor tissues treated with ethidium bromide (mice shown in FIGS. 7 and 8, treated for 4 weeks at 20 mg/Kg per day) were subjected to SDS-Loading buffer boiling lysis and tested for associated signaling pathways by Western blotting.
In order to further determine how ethidium bromide activates phosphorylation of Erk and Caspase3 cleavage and induces apoptosis, we also tested with different cell lines treated with ethidium bromide for 10 min, 30 min, 1, 2, and 6 h.
(In western blotting, separated proteins are transferred to a membrane and probed.)

A further series concerns cancer cells. As to the kind of experiment: Cell death/apoptosis (PI Sub-G1 flow cytometry, MTT, Annexin V). As to conditions: 48 h. The class given is cell-based. As to the method:
(§1) Ethidium bromide was purchased from Sigma (E7637) and treated as follows. Cancer and normal cells of various tissue origins with approximately 40% growth abundance were treated with 0.1, 0.4, and 1 μg/ml for 48 h, followed by PI staining and cycle detection by flow cytometry, statistical analysis of genomic DNA break (Sub-G1) cells, or cell viability by MTT method.
(§2) In support of this, cancer cells and normal cells from various tissues with growth abundance of about 40% were treated with 1, 2, and 5 μM for 48 h, respectively, and then observed the growth of the cells by light microscopy, followed by PI staining, detection and statistical analysis of genomic DNA break (Sub-G1) cells by flow cytometry (FIG. 3), or cell apoptosis detection by Annexin V staining method (FIG. 4).

A further series has as its system normal cells. The description is as above. The series is classed as cell-based. As to conditions: 48 h. Here is the method: as §1, §2
The next series has as its system B16 Melanoma. In words: Median lethal dosage (IC50) against tumor cell lines. As to conditions: Mus musculus; B16 melanoma tumor cells. The series is classed as cell-based.
For a further series, the system named is mouse melanoma cells B16. As to the kind of experiment: Subcutaneous B16 melanoma in C57 mice, intraperitoneal administration. The class given is in vivo. As to conditions: intraperitoneal 10 mg/Kg. As to the method:
In order to further test whether ethidium bromide still has strong anti-tumor activity against solid tumors in vivo, C57 mice were first injected subcutaneously with 2×10^6 mouse melanoma cells B16, and the administration was initiated after about 10 days when the subcutaneous tumor volume of the mice reached about 30 mm^3. We first treated the mice by traditional intraperitoneal administration (10 mg/Kg). […] So after 3 days, we switched to injecting every other day. […] Although the tumors of the mice in the dosing group were slightly smaller than those in the control group, the tumor suppression effect was not obvious (FIG. 18C).

In series [4] the test system is colorectal cancer cells RKO. In words: Subcutaneous RKO solid tumor in nude mice, gavage administration. The class given is in vivo. As to conditions: gavage 20 mg/Kg. As to the method:
We also tested the anti-tumor activity of ethidium bromide against subcutaneous solid tumors. 2×10^6 colorectal cancer cells RKO were injected subcutaneously. About 1 week later, when solid tumors grew subcutaneously in nude mice, gavage administration (20 mg/Kg) was started. The size of the tumors was measured twice a week.

The conditions of series [5]: cited from earlier work.
In another series the test system is C2C12. As to the kind of experiment: Median lethal dosage (IC50) against normal cell lines. The series is classed as cell-based. As to conditions: Mus musculus; C2C12 normal cells.
A further series deals with MEF. Described as above. The class given is cell-based. As to conditions: Mus musculus; MEF normal cells.
A further series has as its system normal cell line GES1. In words: Mitochondrial function by Seahorse. The series is classed as cell-based. As to conditions: Seahorse after 6 hours. Here is the method:
To further verify the effect of ethidium bromide on mitochondrial function, various cell lines were treated with ethidium bromide and mitochondrial function was tested by using Seahorse after 6 hours.

Where [6] appears, read: cell lines treated 10 min, 30 min, 1, 2, 6 h.

The values that follow come from patent US20250152577A1, “Pharmaceutical Composition of Ethidium Bromide and Use in Treating Cancer” (RUIJIN HOSPITAL, SHANGHAI JIAOTONG UNIVERSITY SCHOOL OF …, priority 2022, published 2025).

Broadly, the IC50 is the concentration at which inhibition is half-maximal. For the compound `CC[n+]1c(-c2ccccc2)c2cc(N)ccc2c2ccc(N)cc21` [ethidium bromide, Ethidium bromide], the IC50 in the series on N2A Neuroglioma is 15.7 µM; in the series on LO2 it was 50.7 µM; in the series with B16 Melanoma, 11.2 µM; in the series on C2C12, 85.5 µM; in the series with MEF, 38.5 µM. The subcutaneous tumor mass result in [1] (20 mg/Kg in PBS injected directly into the tumor, once a day, three injections) is “rapidly necrotic and eventually died and fell off”. Moreover, the anti-tumor effect result in series [1] (intravenously administered) was “very limited”. Besides, in series [2], the tolerability result is listed as “well tolerated”. Further, the “time at which mTOR was activated” value in series [3] (setting [6]) was 10 min. Besides, in series [3] (setting [6]), the “time at which p-Erk was activated” value amounted to 1 h. The “time at which p-NFkB was activated” value in series [3] (setting [6]) worked out at 30 min. Moreover, in series [3] (in vitro cells (AGS, GES1, RKO), 3 days of treatment), the “cleaved Caspase3 and Erk phosphorylation in vitro” value is “significant increase in the phosphorylation levels of both cleaved Caspase3 and Erk”. Further, the “induction of cell death” value in the series on cancer cells (0.1, 0.4, 1 μg/ml, SK-Hep1, BEL-7404, B16) is “can selectively induce the death of a wide range of cancer cells”; in the series with cancer cells (1, 2, 5 μM, SK-Hep1, 7404, AGS, RKO) it was “can selectively induce the death of cancer cells in many different tissues”. Also, the “growth inhibition / apoptosis” value in the series on normal cells (0.1, 0.4, 1 μg/ml, Chang, LO2, 3T3-L1) is “inhibited growth at most and cannot induce apoptosis”; with normal cells (1, 2, 5 μM, LO2, chang, GES1), “only inhibited growth and cannot induce apoptosis”. For the same compound, the tumor suppression effect entry in the series with mouse melanoma cells B16 was “not obvious”. Besides, the body weight entry in the series on mouse melanoma cells B16 (after 3 days of continuous injection) is reported as “lose weight significantly”. Also, the “survival of mice by the end of the experiment” value in the series on mouse melanoma cells B16 (daily 3 days then every other day) is reported as “only 1 of the 19 mice survived”. Moreover, in [4], the “viability of nude mice” value is given as “contributed to improve the viability of nude mice”. Moreover, the “inhibitory effect on subcutaneous solid tumors” value in series [4] (start about 1 week after cell injection) is on record as “very unsatisfactory”. For the same compound, the “DNA mutations and carcinogenesis in cells or organisms” value in series [5] (National Toxicology Program, 1239-45-8) was “no evidence that ethidium bromide can induce DNA mutations and carcinogenesis”. For the same compound, in series [5] (long-term treatment, Mutation Research, 174(1986) 175-178), the “genetic mutations in cells” value is “do not create genetic mutations”. The “oxygen consumption, glycolysis level, glycolysis rate” value in the series with normal cell line GES1 was “decreased only at higher concentrations such as 5 μM”.
